Data on one molecule can be found in paper PMC10069031 (European Journal of Medical Research, 2023).

In assay [1] the test system is CCL2. Nature of the assay: CCL2 in MC38 tumors. It counts as in vivo, mouse. Particulars: REG 5 and 10 mg/kg/day. Here is the method: For tumors, snap-frozen tissue was subjected to cryogenic grinding using a Mixer Mill MM 400 and stainless steel beads (7 mm in diameter; Retsch) and subsequently lysed in Tris Lysis Buffer (Meso Scale Diagnostics). The lysates were centrifuged at 25,000 g at 4 °C for 10 min, protein concentrations were determined using the 660 nm protein assay kit (Pierce), and 2–20 μg of lysate was used for CCL2 analysis. CCL2 concentrations were related to the amounts of tumor tissue taken for the lysis procedure.
Five analysis of variance (ANOVA) models were applied to analyze the log10-transformed values of the tumor weight in the CT26 study, the CCL2 levels in the tumor in the CT26 and MC38 studies, and the CCL2 levels in the PB in the CT26 and MC38 studies. The standard assumption of equal variances between treatment groups was applied for all endpoints, except for CCL2 levels in the tumor in the MC38 study, for which unequal variances between treatment groups were allowed. A negative binomial regression model was applied to evaluate percentages of CD115^hi and F4/80^hi cells within the CD45^+ cell population in PB and tumor tissue, respectively.
In vivo passaging was initiated by transplanting fragments of cryo-preserved MC38 tumors of early passages (<p5) subcutaneously into 6–8-week-old female C57BL/6 mice. […]

Assay [2] deals with T1, murine CSF1R (Mus musculus, UniProt P09581).
T1 construct: Western blot analysis of total lysates (40 µg/lane) from mouse RAW264.7 cells treated as indicated; endogenous in cells; host or cells: RAW264.7 (murine macrophages)
T1 sequence (P09581 20-977): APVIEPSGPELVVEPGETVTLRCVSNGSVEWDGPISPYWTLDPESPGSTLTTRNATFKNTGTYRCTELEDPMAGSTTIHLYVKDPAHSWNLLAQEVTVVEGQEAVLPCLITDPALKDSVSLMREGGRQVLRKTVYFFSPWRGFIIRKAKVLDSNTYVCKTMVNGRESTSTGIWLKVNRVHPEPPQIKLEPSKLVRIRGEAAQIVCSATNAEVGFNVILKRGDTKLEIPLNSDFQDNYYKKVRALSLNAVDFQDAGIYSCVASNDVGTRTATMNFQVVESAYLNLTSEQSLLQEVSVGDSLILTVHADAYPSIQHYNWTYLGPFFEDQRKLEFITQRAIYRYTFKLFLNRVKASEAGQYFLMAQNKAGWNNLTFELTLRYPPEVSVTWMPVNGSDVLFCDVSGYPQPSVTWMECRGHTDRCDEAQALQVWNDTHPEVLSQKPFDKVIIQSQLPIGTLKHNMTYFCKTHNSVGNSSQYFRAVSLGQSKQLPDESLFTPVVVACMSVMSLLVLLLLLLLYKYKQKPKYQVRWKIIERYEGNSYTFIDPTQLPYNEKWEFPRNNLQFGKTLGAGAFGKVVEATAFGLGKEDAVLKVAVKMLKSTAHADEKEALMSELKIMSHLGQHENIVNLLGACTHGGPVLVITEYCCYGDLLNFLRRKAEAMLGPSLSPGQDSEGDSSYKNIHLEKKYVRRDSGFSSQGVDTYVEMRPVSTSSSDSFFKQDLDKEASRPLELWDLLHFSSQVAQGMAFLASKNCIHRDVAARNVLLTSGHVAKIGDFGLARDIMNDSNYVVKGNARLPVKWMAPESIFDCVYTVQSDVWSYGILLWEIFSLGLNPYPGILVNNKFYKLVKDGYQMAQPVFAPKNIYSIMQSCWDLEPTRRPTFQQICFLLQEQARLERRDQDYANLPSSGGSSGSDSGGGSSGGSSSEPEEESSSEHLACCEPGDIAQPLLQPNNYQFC
Nature of the assay: CSF1R inhibition in RAW264.7 cells (western blot of pCSF1R). It counts as cell-based. How it is done: RAW264.7 cells (10^6) were seeded into cell culture dishes 6 cm in diameter and incubated in 4 mL RPMI/10% fetal bovine serum (Biochrom) for 24 h at 37 °C in a humidified 5% CO2 atmosphere. Cells were washed once with phosphate-buffered saline (PBS) and starved in 3 mL RPMI/0.1% bovine serum albumin for another 24 h. Cells were then treated for 1 h at 37 °C with drugs at the indicated final concentrations, with 0.5% DMSO as vehicle control, or left untreated, and finally stimulated for 2 min at 37 °C with 100 ng/mL recombinant mouse CSF1 (R&D Systems) by adding 1 mL prewarmed starving medium containing 400 ng/mL CSF1. Dishes were placed on ice and cells were immediately washed with ice-cold PBS and lysed with 50 µL lysis buffer (50 mM HEPES pH 7.5, 150 mM NaCl, 1.5 mM MgCl2, 10% glycerol, 1% Triton X-100, 0.5% desoxycholate, 0.2% sodium dodecyl sulfate, 1 mM ethylene glycol-bis[β-aminoethyl ether]-N,N,N′,N′-tetraacetic acid, 100 mM NaF, 10 mM Na4P2O7, 1 mM Na3VO4, 1% Phosphatase Inhibitor Cocktail 3 [Sigma-Aldrich], 1 mM phenylmethyl sulfonyl fluoride, Complete Protease Inhibitor Cocktail [Roche CustomBiotech; 1 tablet/10 mL], and 50 U/mL Benzonase [Sigma-Aldrich]). Lysed cells were scraped into Eppendorf tubes, incubated on ice for 20 min, and centrifuged at 4 °C for 10 min at 13,000 rpm; supernatants (lysates) were transferred into new tubes and stored at −80 °C.
Protein concentrations were determined using Pierce bicinchoninic acid assay (Thermo Fisher Scientific) and 40 µg/lane of total lysate was separated by SDS-PAGE on 4–12% Criterion XT Bis–Tris Gels (Bio-Rad) and subsequently transferred to polyvinylidene difluoride membranes using the Trans Blot Turbo Blotting System (Bio-Rad). For antigen detection, membranes were blocked with PBS Odyssey blocking reagent (LI-COR Biosciences) for 1 h at room temperature (RT). Primary antibodies were incubated overnight at 4 °C and the fluorescent secondary antibodies were incubated for 1 h at RT. After each antibody incubation, blots were washed with PBS with 0.05% Tween 20 (Carl Roth) for 15–30 min at RT. Fluorescent signals were quantitatively captured using the Odyssey DLx Infrared Imaging System (LI-COR Biosciences) and the half-maximal inhibitory concentration (IC50) values were calculated using GraphPad software (version 7 or newer).

Where two headings read alike, the source gives them in different places.

Regarding `CNC(=O)c1cc(Oc2ccc(NC(=O)Nc3ccc(Cl)c(C(F)(F)F)c3)c(F)c2)ccn1` [REG, Regorafenib], the “CCL2 concentrations in MC38 tumors” value in assay [1] was “dose dependently increased”. The IC50 in assay [2] (RAW264.7 cells, drug 1 h, CSF1 100 ng/mL 2 min, mean ± SD (replicates), M-4, M-5 from pCSF1R bands without relating to total CSF1R, read-out: Mean kinase IC50 values: P(Y559)CSF1R [WB]) was 59 ± 16 nM; in assay [2] (RAW264.7 cells, drug 1 h, CSF1 100 ng/mL 2 min, mean ± SD (replicates), M-4, M-5 from pCSF1R bands without relating to total CSF1R, read-out: Mean kinase IC50 values: P(Y721)CSF1R [WB]), 27 ± 14 nM; in assay [2] (approximate value of the discussion, read-out: IC50, murine CSF1R in RAW264.7 macrophages), approximately 30 nM.
